Measurements: patent publication US10105357B2, “Indication of antibiotic drugs for preparation of cancer inhibition pharmaceutical composition” (LAUNX BIOMEDICAL CO., LTD., priority 2014, dated 2018)
Where a name gives a salt, the structure may show the parent alone. Read-outs that look alike come from different tables or passages of the source.

Columns and labels:
Format in all cases: cell-based, human
[1] = system: A375 (Amelanotic Melanoma); test: Cell viability analysis, skin cancer A375; settings: Homo sapiens
[2] = system: HI650 (Lung Adenocarcinoma); test: Cell viability analysis, lung cancer HI650; settings: Homo sapiens
[3] = system: TSGH-8301 (Urinary Bladder Carcinoma); test: Cell viability analysis, bladder cancer TSGH-8301; settings: Homo sapiens
[4] = system: LoVo (Colorectal Adenocarcinoma); test: Cell viability analysis, colon cancer LoVo; settings: Homo sapiens, LoVo
[5] = system: HeLa (Cervix Adenocarcinoma); test: Cell viability analysis, cervical cancer HeLa; settings: Homo sapiens, HeLa
[6] = system: MKN-45 (Gastric Adenocarcinoma); test: Cell viability analysis, gastric cancer MKN-45; settings: Homo sapiens
[7] = system: MCF7 (Mammary Gland, Adenocarcinoma); test: Cell viability analysis, breast cancer MCF7; settings: Homo sapiens
[8] = system: HL-60 (Acute Promyelocytic Leukemia); test: Cell viability analysis, leukemia HL-60; settings: Homo sapiens
[9] = system: A549 (Lung Adenocarcinoma); test: Cell viability analysis, lung cancer A549; settings: Homo sapiens
[10] = system: PC3 (p53−) (Prostate Adenocarcinoma); test: Cell viability analysis, prostate cancer PC3; settings: Homo sapiens, 72 h, read-out: cell viability (survival rate), PC3, drug 10 μM, 72 hours, WST-1, OD450 nm
cancer cell lines = test: Cell viability analysis (WST-1) on cancer cell lines; settings: drug 10 μM, 72 hours, WST-1; Table 3
[11] = system: AGS (Gastric Adenocarcinoma); test: Cell viability analysis, gastric cancer AGS; settings: Homo sapiens
[12] = system: HepG2 (Hepatocellular Carcinoma); test: Cell viability analysis, hepatic cancer HepG2; settings: Homo sapiens
[13] = A-375, 72 h, read-out: cell viability (survival rate), A375, drug 10 μM, 72 hours, WST-1, OD450 nm
[14] = NCI-H1650, 72 h, read-out: cell viability (survival rate), H1650, drug 10 μM, 72 hours, WST-1, OD450 nm
[15] = 72 h, read-out: cell viability (survival rate), TSGH, drug 10 μM, 72 hours, WST-1, OD450 nm
[16] = 72 h, read-out: cell viability (survival rate), LoVo, drug 10 μM, 72 hours, WST-1, OD450 nm
[17] = 72 h, read-out: cell viability (survival rate), HeLa, drug 10 μM, 72 hours, WST-1, OD450 nm
[18] = MKN-45, 72 h, read-out: cell viability (survival rate), MKN-45, drug 10 μM, 72 hours, WST-1, OD450 nm
[19] = MCF7, 72 h, read-out: cell viability (survival rate), MCF7, drug 10 μM, 72 hours, WST-1, OD450 nm
[20] = HL-60, 72 h, read-out: cell viability (survival rate), HL-60, drug 10 μM, 72 hours, WST-1, OD450 nm
[21] = A549, 72 h, read-out: cell viability (survival rate), A549, drug 10 μM, 72 hours, WST-1, OD450 nm
[22] = 72 h, read-out: cell viability (survival rate), AGS, drug 10 μM, 72 hours, WST-1, OD450 nm
[23] = HepG2, 72 h, read-out: cell viability (survival rate), HepG2, drug 10 μM, 72 hours, WST-1, OD450 nm

Row | Structure (SMILES) | viability at 10 µM [1, 13] [%] | viability at 10 µM [2, 14] [%] | viability at 10 µM [3, 15] [%] | viability at 10 µM [4, 16] [%] | viability at 10 µM [5, 17] [%] | viability at 10 µM [6, 18] [%] | viability at 10 µM [7, 19] [%] | viability at 10 µM [8, 20] [%] | viability at 10 µM [9, 21] [%] | viability at 10 µM [10] [%] | inhibition effect on different cancer cell lines (cancer cell lines) | viability at 10 µM [11, 22] [%] | viability at 10 µM [12, 23] [%] | further results
1 | NC[C@@H]1O[C@H](O[C@H]2[C@@H](O)[C@H](O[C@@H]3[C@@H](O)[C@H](N)C[C@H](N)[C@H]3O[C@H]3O[C@H](CO)[C@@H](O)[C@H](O)[C@H]3N)O[C@@H]2CO)[C@H](N)[C@@H](O)[C@@H]1O [Paromomycin Sulfate] | 91.4 | 99 | 106 | 67.1 | 96.2 | 92.1 | 112 | 87.1 | 78.2 | 146 | significant inhibition effect | 80.2 | – | –
2 | COc1c(N2C[C@@H]3CCCN[C@@H]3C2)c(F)cc2c(=O)c(C(=O)O)cn(C3CC3)c12 [Moxifloxacin hydrochloride] | 94 | 70.9 | 75.7 | 102 | 92 | 89 | 90.3 | 97.1 | 95.5 | 69.1 | significant inhibition effect | 77.1 | – | –
3 | CCN1CCN(C(=O)N[C@@H](C(=O)N[C@@H]2C(=O)N3C(C(=O)O)=C(CSc4nnnn4C)CS[C@H]23)c2ccc(O)cc2)C(=O)C1=O [Cefoperazone (Cefobid), Cefoperazone] | 90 | 98.4 | 60.3 | 105 | 91.7 | 51.6 | 50.1 | 111 | 76.5 | 104 | significant inhibition effect | 98.6 | – | –
4 | Oc1ccc(C=Cc2cc(O)cc(O)c2)cc1 [Resveratrol] | 53 | 54.6 | 85.3 | 83.2 | 108 | 91.8 | 71.8 | 76.4 | 72.5 | 75 | significant inhibition effect | 47.9 | – | –
5 | C=C(NC(=O)C(=C)NC(=O)c1csc(C2=N[C@@H]3c4csc(n4)[C@H]4NC(=O)c5csc(n5)[C@H]([C@](C)(O)[C@@H](C)O)NC(=O)[C@H]5CSC(=N5)/C(=C/C)NC(=O)[C@H]([C@@H](C)O)NC(=O)c5csc(n5)[C@]3(CC2)NC(=O)[C@H](C)NC(=O)C(=C)NC(=O)[C@H](C)NC(=O)[C@H]([C@@H](C)CC)N[C@@H]2C=Cc3c([C@H](C)O)cc(nc3[C@H]2O)C(=O)O[C@@H]4C)n1)C(N)=O [Thiostrepton] | – | – | – | – | – | – | – | – | – | – | significant inhibition effect | – | – | viability at 10 µM ([1]; A-375, drug 10 μM, 72 hours, WST-1, OD450 nm, read-out: cell viability (survival rate), A375): 27.6%; viability at 10 µM ([12]; HepG2, drug 10 μM, 72 hours, WST-1, OD450 nm, read-out: cell viability (survival rate), HepG2): 49.2%; viability at 10 µM ([2]; NCI-H1650, drug 10 μM, 72 hours, WST-1, OD450 nm, read-out: cell viability (survival rate), H1650): 45.4%; viability at 10 µM ([3]; drug 10 μM, 72 hours, WST-1, OD450 nm, read-out: cell viability (survival rate), TSGH): 20.1%; viability at 10 µM ([4]; drug 10 μM, 72 hours, WST-1, OD450 nm, read-out: cell viability (survival rate), LoVo): 52.9%; viability at 10 µM ([5]; drug 10 μM, 72 hours, WST-1, OD450 nm, read-out: cell viability (survival rate), HeLa): 37.8%; viability at 10 µM ([6]; MKN-45, drug 10 μM, 72 hours, WST-1, OD450 nm, read-out: cell viability (survival rate), MKN-45): 56.7%; viability at 10 µM ([7]; MCF7, drug 10 μM, 72 hours, WST-1, OD450 nm, read-out: cell viability (survival rate), MCF7): 65%; viability at 10 µM ([8]; HL-60, drug 10 μM, 72 hours, WST-1, OD450 nm, read-out: cell viability (survival rate), HL-60): 37.8%; viability at 10 µM ([9]; A549, drug 10 μM, 72 hours, WST-1, OD450 nm, read-out: cell viability (survival rate), A549): 62.2%; viability at 10 µM ([11]; drug 10 μM, 72 hours, WST-1, OD450 nm, read-out: cell viability (survival rate), AGS): 25.7%
6 | Fc1ccc([C@@H]2CCNC[C@H]2COc2ccc3c(c2)OCO3)cc1 [Paroxetine HCl] | 31.9 | 44.1 | 56.4 | – | 42.1 | 49.2 | 56.4 | 79.1 | 80.1 | 70.6 | significant inhibition effect | 21.5 | – | –
7 | CCn1cc(C(=O)O)c(=O)c2ccc(C)nc21 [Nalidixic acid (NegGram), Nalidixic acid] | 87.9 | 72 | 46.3 | 91.5 | 95.8 | 54.9 | 86 | 113 | 83.8 | – | significant inhibition effect | 57.3 | 96.8 | –
8 | Cc1cc2nc3c(=O)[nH]c(=O)nc-3n(C[C@H](O)[C@H](O)[C@H](O)CO)c2cc1C [Riboflavin (Vitamin B2), Riboflavin] | 89.7 | 51.1 | 79.7 | 83.3 | 128 | 87.3 | – | 90 | 67.6 | 79.4 | significant inhibition effect | 74.9 | – | –
9 | C[C@]12CCC(=O)C=C1CC[C@@H]1[C@@H]2[C@@H](O)C[C@@]2(C)[C@H]1CC[C@]2(O)C(=O)CO [Hydrocortisone (Cortisol), Hydrocortisone] | 87.6 | 66.1 | 125 | 83.3 | 86.1 | 81.3 | 76.9 | 105 | 73.6 | – | significant inhibition effect | 77.5 | 109 | –
10 | Nc1ccn([C@H]2CC[C@@H](CO)O2)c(=O)n1 [Zalcitabine] | 83.5 | 86.4 | 79 | 91 | 89.2 | 70.4 | 52.7 | 119 | 66.3 | – | significant inhibition effect | 69.1 | 96.9 | –
11 | C[C@@H](c1ncncc1F)[C@](O)(Cn1cncn1)c1ccc(F)cc1F [Voriconazole] | 102 | 102 | 53.9 | – | 92.6 | 104 | 90.1 | 94.3 | 82.9 | 97 | significant inhibition effect | 86.1 | – | –
12 | Clc1ccc(C(Cn2ccnc2)OCc2csc3c(Cl)cccc23)c(Cl)c1 (stereo not drawn) [Sertaconazole nitrate] | 52 | 96.3 | 89.4 | 94.9 | 58.9 | 69.5 | 76.4 | 73.4 | 75.4 | – | significant inhibition effect | 97.1 | 77.4 | –
